Test results published in PubChem BioAssay AID248 (DTP/NCI, 2004).
Values joined by “and” are separate entries in the source; they are usually repeats but may differ in a detail not shown here. Equal values may be shown once. Toxic doses and inconclusive results are not listed. Cut-off read from the data, not from the text of the source: active = T/C of 150% or more; inactive = T/C below 125%. Square brackets hold non-standard residues; d marks the D form. Peptide text beside a SMILES is read from it. ξ: configuration not given here. ξF = NC(Cc1ccccc1)C(=O)O

Tested on: L1210 leukemia ip in BDF1 mice, survival T/C
Assay: NCI In Vivo Anticancer Drug Screen. Data for tumor model L1210 Leukemia (intraperitoneal) in B6D2F1 (BDF1) mice
Conditions: endpoint: mean survival time, higher = longer survival
Procedure, shortened: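 Ratio derived from survival: compound-dosed mice over vehicle-dosed mice, all bearing a transplantable tumor.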

[1] = dose: 100.0 mg/kg/injection, schedule: Q01DX009 (ip), vehicle: saline with Tween-80
[2] = dose: 100.0 mg/kg/injection, schedule: Q04DX003 (ip), vehicle: saline with Tween-80
[3] = dose: 200.0 mg/kg/injection, schedule: Q01DX009 (ip), vehicle: saline with Tween-80
[4] = dose: 200.0 mg/kg/injection, schedule: Q04DX003 (ip), vehicle: saline with Tween-80
[5] = dose: 400.0 mg/kg/injection, schedule: Q01DX009 (ip), vehicle: saline with Tween-80
[6] = dose: 100.0 mg/kg/injection, schedule: Q01DX009 (ip), vehicle: Klucel (hydroxypropylcellulose) (HPC)
[7] = dose: 200.0 mg/kg/injection, schedule: Q01DX009 (ip), vehicle: Klucel (hydroxypropylcellulose) (HPC)
[8] = dose: 100.0 mg/kg/injection, schedule: Q04DX003 (ip), vehicle: Klucel (hydroxypropylcellulose) (HPC)
[9] = dose: 200.0 mg/kg/injection, schedule: Q04DX003 (ip), vehicle: Klucel (hydroxypropylcellulose) (HPC)
[10] = dose: 400.0 mg/kg/injection, schedule: Q04DX003 (ip), vehicle: Klucel (hydroxypropylcellulose) (HPC)
[11] = dose: 100.0 mg/kg/injection, schedule: Q01DX009 (ip), vehicle: saline
[12] = dose: 200.0 mg/kg/injection, schedule: Q01DX009 (ip), vehicle: saline
[13] = dose: 400.0 mg/kg/injection, schedule: Q01DX009 (ip), vehicle: saline
[14] = dose: 100.0 mg/kg/injection, schedule: Q01DX001 (ip), vehicle: saline
[15] = dose: 200.0 mg/kg/injection, schedule: Q01DX001 (ip), vehicle: saline
[16] = dose: 400.0 mg/kg/injection, schedule: Q01DX001 (ip), vehicle: saline

Measured: T/C

O=c1[nH]cnc2c1nc1n2CCC1
inactive: dose: 50.0 mg/kg/injection, schedule: Q01DX009 (ip), vehicle: saline with Tween-80 93 % of control | [1] 90 % of control | [2] 105 % of control | [3] 88 % of control | [4] 102 % of control

NC(Cc1ccccc1)C(=O)NCC(=O)NCC(=O)O (stereo not drawn) (H-[ξF]-Gly-Gly-OH)
inactive: [1] 107 % of control | [2] 102 % of control | [3] 91 % of control | [4] 104 % of control | [5] 89 % of control | dose: 400.0 mg/kg/injection, schedule: Q04DX003 (ip), vehicle: saline with Tween-80 98 % of control

N#[N+]c1c([O-])[nH]c(=O)[nH]c1=O
inactive: dose: 50.0 mg/kg/injection, schedule: Q01DX009 (ip), vehicle: Klucel (hydroxypropylcellulose) (HPC) 95 % of control | [6] 107 % of control | [7] 88 % of control

CCOC(=O)c1cnc(C)nc1Nc1ccccc1F
inactive: [8] 105 % of control | [9] 104 % of control

Clc1cccc(N=C/C=C/c2ccccc2)c1
inactive: dose: 100.0 mg/kg/injection, schedule: Q01DX001 (ip), vehicle: carboxymethylcellulose (CMC) 105 % of control | dose: 100.0 mg/kg/injection, schedule: Q01DX009 (ip), vehicle: carboxymethylcellulose (CMC) 96 % of control and 100 % of control | dose: 100.0 mg/kg/injection, schedule: Q04DX002 (ip), vehicle: carboxymethylcellulose (CMC) 94 % of control and 100 % of control | dose: 100.0 mg/kg/injection, schedule: Q04DX003 (ip), vehicle: carboxymethylcellulose (CMC) 92 % of control | dose: 200.0 mg/kg/injection, schedule: Q01DX001 (ip), vehicle: carboxymethylcellulose (CMC) 96 % of control | dose: 200.0 mg/kg/injection, schedule: Q01DX009 (ip), vehicle: carboxymethylcellulose (CMC) 107 % of control and 92 % of control | dose: 200.0 mg/kg/injection, schedule: Q04DX002 (ip), vehicle: carboxymethylcellulose (CMC) 95 % of control and 97 % of control | dose: 200.0 mg/kg/injection, schedule: Q04DX003 (ip), vehicle: carboxymethylcellulose (CMC) 96 % of control | dose: 400.0 mg/kg/injection, schedule: Q01DX001 (ip), vehicle: carboxymethylcellulose (CMC) 102 % of control | dose: 400.0 mg/kg/injection, schedule: Q01DX009 (ip), vehicle: carboxymethylcellulose (CMC) 103 % of control | dose: 400.0 mg/kg/injection, schedule: Q04DX002 (ip), vehicle: carboxymethylcellulose (CMC) 94 % of control and 98 % of control | dose: 400.0 mg/kg/injection, schedule: Q04DX003 (ip), vehicle: carboxymethylcellulose (CMC) 107 % of control

Fc1ccc(C(c2ccc(F)cc2)C(Cl)Cl)cc1
inactive: [1] 95 % of control | [3] 97 % of control | [5] 93 % of control

CCCCCCCCCCCCCCCCOc1ccccn1
inactive: [6] 96 % of control | [8] 92 % of control | [7] 96 % of control | [9] 95 % of control | dose: 400.0 mg/kg/injection, schedule: Q01DX009 (ip), vehicle: Klucel (hydroxypropylcellulose) (HPC) 98 % of control | [10] 90 % of control

O=c1ccn2c(n1)OC1C(O)C(CO)OC12 (configuration not stated)
inactive: dose: 100.0 mg/kg/injection, schedule: Q01DX005 (ip), vehicle: saline 103 % of control | [11] 97 % of control | dose: 200.0 mg/kg/injection, schedule: Q01DX005 (ip), vehicle: saline 111 % of control | [12] 109 % of control | [13] 101 % of control

Cc1cc(C)n(/N=C/c2ccc3c(c2)CCC3)c(=O)c1C#N
inactive: [9] 95 % of control | [10] 90 % of control

CCOc1ncc([N+](=O)[O-])c(OCC)n1
inactive: dose: 50.0 mg/kg/injection, schedule: Q01DX001 (ip), vehicle: saline 103 % of control | [14] 106 % of control | [15] 103 % of control | [16] 100 % of control

O=C(NNc1ccccc1)c1ccc(Cl)cc1
inactive: dose: 100.0 mg/kg/injection, schedule: Q04DX002 (ip), vehicle: gum acacia 112 % of control | dose: 200.0 mg/kg/injection, schedule: Q04DX002 (ip), vehicle: gum acacia 87 % of control | dose: 400.0 mg/kg/injection, schedule: Q04DX002 (ip), vehicle: gum acacia 102 % of control

CN(C(=S)Nc1ccccc1)c1cc(N2CCCC2)ccn1
inactive: [14] 98 % of control | [15] 98 % of control

CSC(=N)c1cccc(OCc2ccccc2)c1
inactive: [6] 113 % of control | dose: 100.0 mg/kg/injection, schedule: Q04DX002 (ip), vehicle: Klucel (hydroxypropylcellulose) (HPC) 100 % of control | dose: 100.0 mg/kg/injection, schedule: Q04DX002 (ip), vehicle: saline 102 % of control | [7] 96 % of control | dose: 200.0 mg/kg/injection, schedule: Q04DX002 (ip), vehicle: Klucel (hydroxypropylcellulose) (HPC) 103 % of control | dose: 200.0 mg/kg/injection, schedule: Q04DX002 (ip), vehicle: saline 102 % of control | dose: 400.0 mg/kg/injection, schedule: Q04DX002 (ip), vehicle: Klucel (hydroxypropylcellulose) (HPC) 94 % of control | dose: 400.0 mg/kg/injection, schedule: Q04DX002 (ip), vehicle: saline 102 % of control

CNC(=O)O/N=C\C=N\OC(=O)NC
inactive: [14] 93 % of control | [15] 98 % of control | [16] 95 % of control

COC(=O)CCCNC(=O)/C=C1/c2cc(OC)c(OC)cc2CCC1S(=O)(=O)OC (configuration not stated)
inactive: [11] 100 % of control | dose: 100.0 mg/kg/injection, schedule: Q04DX003 (ip), vehicle: saline 105 % of control | [12] 110 % of control | dose: 200.0 mg/kg/injection, schedule: Q04DX003 (ip), vehicle: saline 97 % of control | [13] 88 % of control | dose: 400.0 mg/kg/injection, schedule: Q04DX003 (ip), vehicle: saline 100 % of control

CCOC(=O)C1CC2(OCCO2)c2c(OC)ccc(Cl)c2C1C (configuration not stated)
inactive: dose: 75.0 mg/kg/injection, schedule: Q01DX001 (ip), vehicle: saline 102 % of control | dose: 150.0 mg/kg/injection, schedule: Q01DX001 (ip), vehicle: saline 96 % of control | dose: 300.0 mg/kg/injection, schedule: Q01DX001 (ip), vehicle: saline 94 % of control

Oc1c(Cl)cc(N=Cc2ccc(N(CCCCl)CCCCl)cc2Cl)cc1Cl
inactive: dose: 50.0 mg/kg/injection, schedule: Q04DX003 (ip), vehicle: Klucel (hydroxypropylcellulose) (HPC) 101 % of control | [8] 104 % of control | [9] 101 % of control | [10] 98 % of control
